Results: patent publication US20260242395A1, “AMINOHETEROARYL KINASE INHIBITORS” (ALLORION THERAPEUTICS INC, priority 2022, published 2026)

Experiments:
CDK4/CyclinD1 = target: T1, CDK4/CyclinD1 (Homo sapiens, UniProt P11802); assay: CDK4/CyclinD1 kinase inhibitory activity (Caliper mobility shift); assay type: biochemical; settings: enzyme 20 nM, ATP 672 uM, 28° C. 30 min; read-out: CDK4/Cyclin D1 IC50
T1 construct: purchased ProQinase 0142-0143-1
Procedure: CDK4/CyclinD1 kinase inhibitory activity (IC50): 5 μl of various dilutions of test compound in 1× kinase buffer (20 mM HEPES, pH 7.5, 10 mM MgCl2, 2 mM DTT and 0.01% Triton X-100) was mixed with 10 μL of either CDK4/Cyclin D1 (ProQinase, 0142-0143-1 #, final concentration 20 nM in 1× Kinase buffer) or in 384 plates and incubated at room temperature for 10 min. To initiate each reaction, 10 μL of peptide solution containing fluorescently-labeled-peptide 8(5-FAM-IPTSPITTTYFFFKKK-COOH, GL, 112396 #, final concentration 3000 nM) and ATP (final concentration 672 uM for CDK4/CyclinD1) in 1×Kinase buffer was added to each of the wells containing test compound and CDK4/CyclinD1 mixture. The reaction is then allowed to proceed at 28° C. for 30 min and terminated by the addition of 25 μL stop buffer (100 mM HEPES pH 7.5, 50 mM EDTA, 0.2% Coating Reagent #3 (Perkin Elmer, 760050 #) and 0.015% Brij-35).
(§1) Following the kinase reaction, Caliper EZ reader II (Downstream voltages: −500V, Upstream voltages: −2250V, Base pressure −0.5 PSI, Screen pressure −1.2 PSI) was used to separate the phosphorylated (product) and the unphosphorylated (substrate) fluorescently-labeled peptide 8 based on their different mobility. Both substrate and product were measured and the ratio of these values were used to generate % conversion by Caliper EZ reader II. These conversion values were then transformed into % inhibition of kinase activity using the formula: % Inhibition=[(MA−X)/(MA−MI)]×100% where MA=conversion value of DMSO only controls, MI=conversion value of no enzyme controls and X=conversion value at any given compound dose. IC50 values were then calculated by plotting dose-response curves and then using the XLfit application in Excel software.

CDK6/CyclinD3 = target: T2, CDK6/CyclinD3 (Homo sapiens, UniProt Q00534); assay: CDK6/CyclinD3 kinase inhibitory activity (Caliper mobility shift); assay type: biochemical; settings: enzyme 15 nM, ATP 800 μM, 28° C. 30 min; read-out: CDK6/Cyclin D3 IC50
T2 construct: purchased Carna 04-107
T2 sequence (Q00534 whole entry): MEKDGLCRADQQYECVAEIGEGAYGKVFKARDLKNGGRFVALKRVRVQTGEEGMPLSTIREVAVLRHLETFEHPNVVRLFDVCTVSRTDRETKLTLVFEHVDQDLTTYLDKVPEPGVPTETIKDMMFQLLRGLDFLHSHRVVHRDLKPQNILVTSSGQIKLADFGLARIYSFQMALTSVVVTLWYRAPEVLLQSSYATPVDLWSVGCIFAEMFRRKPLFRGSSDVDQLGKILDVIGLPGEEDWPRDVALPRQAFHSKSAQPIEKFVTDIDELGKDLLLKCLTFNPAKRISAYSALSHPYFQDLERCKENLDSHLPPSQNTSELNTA
T2 sequence (P30281 whole entry partner): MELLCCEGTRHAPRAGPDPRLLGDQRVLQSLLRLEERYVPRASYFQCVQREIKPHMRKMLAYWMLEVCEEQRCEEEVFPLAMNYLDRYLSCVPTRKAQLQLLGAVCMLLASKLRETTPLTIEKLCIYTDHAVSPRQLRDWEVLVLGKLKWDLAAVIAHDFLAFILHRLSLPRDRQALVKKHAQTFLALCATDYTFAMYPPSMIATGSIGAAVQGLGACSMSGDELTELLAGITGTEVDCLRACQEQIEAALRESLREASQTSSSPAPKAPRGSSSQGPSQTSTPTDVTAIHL
Procedure: CDK6/CyclinD3 kinase inhibitory activity (IC50): 5 μl of various dilutions of test compound in 1× kinase buffer (50 mM HEPES pH 7.5, 10 mM MgCl2, 2 mM DTT and 0.01% Brij-35) was mixed with 10 μL of CDK6/CyclinD3 (Carna, 04-107 #, final concentration 15 nM in 1× Kinase buffer) in 384 plates and incubated at room temperature for 10 min. To initiate each reaction, 10 μL of peptide solution containing fluorescently-labeled -peptide 8(5-FAM-IPTSPITTTYFFFKKK-COOH, GL, 112396 #, final concentration 3000 nM) and ATP (final concentration 800 μM for CDK6/CyclinD3 in 1× Kinase buffer was added to each of the wells containing test compound and CDK6/CyclinD3. The reaction is then allowed to proceed at 28° C. for 30 min and terminated by the addition of 25 μL stop buffer (100 mM HEPES pH 7.5, 50 mM EDTA, 0.2% Coating Reagent #3 (Perkin Elmer, 760050 #) and 0.015% Brij-35).
as §1

T1 sequence (P11802 whole entry): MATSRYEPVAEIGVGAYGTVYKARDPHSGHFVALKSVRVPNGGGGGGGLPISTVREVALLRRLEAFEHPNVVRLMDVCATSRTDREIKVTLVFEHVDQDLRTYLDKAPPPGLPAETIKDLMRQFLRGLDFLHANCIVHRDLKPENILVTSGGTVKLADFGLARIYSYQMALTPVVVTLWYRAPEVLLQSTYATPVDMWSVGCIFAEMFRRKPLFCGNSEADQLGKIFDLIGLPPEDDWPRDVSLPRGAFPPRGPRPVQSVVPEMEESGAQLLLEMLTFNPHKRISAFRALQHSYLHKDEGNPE
T1 sequence (P24385 whole entry partner): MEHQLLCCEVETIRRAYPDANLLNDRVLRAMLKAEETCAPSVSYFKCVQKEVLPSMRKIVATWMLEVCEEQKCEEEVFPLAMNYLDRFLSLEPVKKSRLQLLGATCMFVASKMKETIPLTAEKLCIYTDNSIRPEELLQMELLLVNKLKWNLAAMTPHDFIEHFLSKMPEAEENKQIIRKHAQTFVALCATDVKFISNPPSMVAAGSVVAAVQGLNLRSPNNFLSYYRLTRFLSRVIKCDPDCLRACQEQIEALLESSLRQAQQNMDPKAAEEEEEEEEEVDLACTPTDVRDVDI

| Structure (SMILES) | IC50 (CDK4/CyclinD1) [nM] | IC50 (CDK6/CyclinD3) [nM] |
| --- | --- | --- |
| O[C@@H]1COCC[C@H]1Nc1ncc(Cl)c(-c2cc(F)c3ncc4c(c3c2)C2CCC(C4)N2)n1 (single isomer, unassigned) [Example 20a] | 100 to 1000 | ≥ 1000 |
| CC1NCCc2cnc3c(F)cc(-c4nc(N[C@@H]5CCOC[C@H]5O)ncc4Cl)cc3c21 (single isomer, unassigned) [Example 31a] | 10 to 100 | ≥ 1000 |
| CC1NCCc2cnc3c(F)cc(-c4nc(N[C@@H]5CCOC[C@H]5O)ncc4Cl)cc3c21 (single isomer, unassigned) [Example 31b] | < 10 | 100 to 1000 |
| CNC(C)c1cnc2c(F)cc(-c3nc(N[C@@H]4CCOC[C@H]4O)ncc3Cl)cc2c1 (single isomer, unassigned) [Example 32b] | 10 to 100 | 100 to 1000 |
| CC1(O)CCc2nc3c(F)cc(-c4nc(N[C@@H]5CCOC[C@H]5O)ncc4Cl)cc3cc21 (single isomer, unassigned) [Example 38a] | < 10 | 10 to 100 |
| CC1(O)CCc2nc3c(F)cc(-c4nc(N[C@@H]5CCOC[C@H]5O)ncc4Cl)cc3cc21 (single isomer, unassigned) [Example 38b] | < 10 | 10 to 100 |
| CCC(O)c1cc2cc(-c3nc(N[C@@H]4CCOC[C@H]4O)ncc3Cl)cc(F)c2nc1C (single isomer, unassigned) [Example 39a] | < 10 | 100 to 1000 |
| CCC(O)c1cc2cc(-c3nc(N[C@@H]4CCOC[C@H]4O)ncc3Cl)cc(F)c2nc1C (single isomer, unassigned) [Example 39b] | < 10 | 100 to 1000 |
| CC(O)c1cnc2c(F)cc(-c3nc(N[C@@H]4CCOC[C@H]4O)ncc3Cl)cc2c1Cl (single isomer, unassigned) [Example 40b] | < 10 | 100 to 1000 |
| CNC(C)c1cnc2c(F)cc(-c3nc(N[C@@H]4CCOC[C@H]4O)ncc3Cl)cc2c1C (single isomer, unassigned) [Example 48a] | < 10 | 100 to 1000 |
| CNC(C)c1cnc2c(F)cc(-c3nc(N[C@@H]4CCOC[C@H]4O)ncc3Cl)cc2c1C (single isomer, unassigned) [Example 48b] | 10 to 100 | 100 to 1000 |
| CNC(C)c1cc2cc(-c3nc(N[C@@H]4CCOC[C@H]4O)ncc3F)cc(F)c2nc1C (single isomer, unassigned) [Example 54a] | < 10 | 100 to 1000 |
| CNC(C)c1cc2cc(-c3nc(N[C@@H]4CCOC[C@H]4O)ncc3F)cc(F)c2nc1C (single isomer, unassigned) [Example 54b] | < 10 | 100 to 1000 |
| Cc1nc2c(F)cc(-c3nc(N[C@@H]4CCOC[C@H]4O)ncc3Cl)cc2cc1C1CCCN1 (single isomer, unassigned) [Example 57b] | 10 to 100 | ≥ 1000 |
| CNC(C)c1cnc2c(F)cc(-c3nc(N[C@@H]4CCOC[C@H]4O)ncc3F)cc2c1C (single isomer, unassigned) [Example 59b] | 10 to 100 | 100 to 1000 |
| CNC(C)c1cnc2c(F)cc(-c3nc(N[C@@H]4CCOC[C@H]4O)ncc3Cl)cc2c1Cl (single isomer, unassigned) [Example 63a] | 10 to 100 | 100 to 1000 |
| CNC(C)c1cnc2c(F)cc(-c3nc(N[C@@H]4CCOC[C@H]4O)ncc3F)cc2c1Cl (single isomer, unassigned) [Example 64a] | 10 to 100 | 100 to 1000 |
| CNC(C)c1cnc2c(F)cc(-c3nc(N[C@@H]4CCOC[C@H]4O)ncc3F)cc2c1Cl (single isomer, unassigned) [Example 64b] | 10 to 100 | 100 to 1000 |
| Cc1nc2c(F)cc(-c3nc(N[C@@H]4CCOC[C@H]4O)ncc3Cl)cc2cc1C(C)NC1CC1 (single isomer, unassigned) [Example 73a] | 10 to 100 | 100 to 1000 |
| Cc1nc2c(F)cc(-c3nc(N[C@@H]4CCOC[C@H]4O)ncc3F)cc2cc1C(C)NC1CC1 (single isomer, unassigned) [Example 74b] | < 10 | 100 to 1000 |
| [2H]c1nc(N[C@@H]2CCOC[C@H]2O)nc(-c2cc(F)c3nc(C)c(C(C)NC4CC4)cc3c2)c1F (single isomer, unassigned) [Example 77a] | < 10 | 100 to 1000 |
| [2H]c1nc(N[C@@H]2CCOC[C@H]2O)nc(-c2cc(F)c3nc(C)c(C(C)NC4CC4)cc3c2)c1F (single isomer, unassigned) [Example 77b] | < 10 | 100 to 1000 |
| Cc1nc2c(F)cc(-c3ccnc(N[C@@H]4CCOC[C@H]4O)n3)cc2c(C)c1C(C)O (single isomer, unassigned) [Example 82a] | 10 to 100 | 100 to 1000 |

The next lines start with the values.

| IC50 (CDK4/CyclinD1) [nM] | IC50 (CDK6/CyclinD3) [nM] | Structure (SMILES) |
| --- | --- | --- |
| 10 to 100 | 100 to 1000 | Cc1nc2c(F)cc(-c3ccnc(N[C@@H]4CCOC[C@H]4O)n3)cc2c(C)c1C(C)O (single isomer, unassigned) [Example 82b] |
| < 10 | 10 to 100 | [2H]c1nc(N[C@@H]2CCOC[C@H]2O)nc(-c2cc(F)c3nc(C)c(C(C)O)c(C)c3c2)c1F (single isomer, unassigned) [Example 84a] |
| < 10 | 10 to 100 | [2H]c1nc(N[C@@H]2CCOC[C@H]2O)nc(-c2cc(F)c3nc(C)c(C(C)O)c(C)c3c2)c1Cl (single isomer, unassigned) [Example 85a] |
| < 10 | 10 to 100 | [2H]c1nc(N[C@@H]2CCOC[C@H]2O)nc(-c2cc(F)c3nc(C)c(C(C)O)c(C)c3c2)c1Cl (single isomer, unassigned) [Example 85b] |
| < 10 | 10 to 100 | Cc1c(C(C)O)cnc2c(F)cc(-c3nc(N[C@@H]4CCOC[C@H]4O)ncc3Cl)cc12 (single isomer, unassigned) [Example 88b] |
| 10 to 100 | 100 to 1000 | CC(NC1CC1)c1cnc2c(F)cc(-c3nc(N[C@@H]4CCOC[C@H]4O)ncc3Cl)cc2c1Cl (single isomer, unassigned) [Example 90a] |
| < 10 | 100 to 1000 | CC(NC1CC1)c1cnc2c(F)cc(-c3nc(N[C@@H]4CCOC[C@H]4O)ncc3Cl)cc2c1Cl (single isomer, unassigned) [Example 90b] |
| 10 to 100 | 100 to 1000 | Cc1c(C(C)NC2CC2)cnc2c(F)cc(-c3nc(N[C@@H]4CCOC[C@H]4O)ncc3Cl)cc12 (single isomer, unassigned) [Example 91a] |
| 10 to 100 | 100 to 1000 | Cc1c(C(C)NC2CC2)cnc2c(F)cc(-c3nc(N[C@@H]4CCOC[C@H]4O)ncc3F)cc12 (single isomer, unassigned) [Example 93a] |
| < 10 | 100 to 1000 | Cc1c(C(C)NC2CC2)cnc2c(F)cc(-c3nc(N[C@@H]4CCOC[C@H]4O)ncc3F)cc12 (single isomer, unassigned) [Example 93b] |
| < 10 | 100 to 1000 | CC1(C)NCc2c(cnc3c(F)cc(-c4nc(N[C@@H]5CCOC[C@H]5O)ncc4F)cc23)C1O (single isomer, unassigned) [Example 106a] |
| 10 to 100 | ≥ 1000 | COC1c2cnc3c(F)cc(-c4nc(N[C@@H]5CCOC[C@H]5O)ncc4F)cc3c2CNC1(C)C (single isomer, unassigned) [Example 108a] |
| < 10 | 100 to 1000 | COC1c2cnc3c(F)cc(-c4nc(N[C@@H]5CCOC[C@H]5O)ncc4F)cc3c2CNC1(C)C (single isomer, unassigned) [Example 108b] |
| 10 to 100 | 100 to 1000 | CN1Cc2c(cnc3c(F)cc(-c4nc(N[C@@H]5CCOC[C@H]5O)ncc4Cl)cc23)C(O)C1(C)C (single isomer, unassigned) [Example 111a] |
| 100 to 1000 | ≥ 1000 | CN1Cc2c(cnc3c(F)cc(-c4nc(N[C@@H]5CCOC[C@H]5O)ncc4Cl)cc23)C(O)C1(C)C (single isomer, unassigned) [Example 111b] |
